Laboratory results from ChEMBL document CHEMBL1201862, “PubChem BioAssay data set” (2004).
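Protocol summary: plate cells (96-well), add compound at 5 concentrations, incubate 48 h, interpolate endpoints linearly. GI50 = concentration required for 50% inhibition of growth.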 Active and inactive are the calls of the source. Cut-off read from the data, not from the text of the source: active = GI50 up to about 1.1 µM and inactive = higher.

Columns and labels:
Assay in all cases: NCI anticancer screen, dose series, 48 h
TK-10 = test system: TK-10
HCT-15 = test system: HCT-15
SF-268 = test system: SF-268
KM12 = test system: KM12
UACC-257 = test system: UACC-257
HT-29 = test system: HT-29
U-251 = test system: U-251
A498 = test system: A498
LOX IMVI = test system: LOX IMVI
RPMI-8226 = test system: RPMI-8226
OVCAR-5 = test system: OVCAR-5
HCT-116 = test system: HCT-116
M19-MEL = test system: M19-MEL
SK-MEL-28 = test system: SK-MEL-28
COLO 205 = test system: COLO 205
A549 = test system: A549
HL-60 = test system: HL-60
SN12C = test system: SN12C

SMILES	GI50 (TK-10)	GI50 (HCT-15) [µM]	GI50 (SF-268)	GI50 (KM12)	GI50 (UACC-257)	GI50 (HT-29)	GI50 (U-251)	GI50 (A498)	GI50 (LOX IMVI)	GI50 (RPMI-8226)	GI50 (OVCAR-5)	GI50 (HCT-116)	GI50 (M19-MEL)	GI50 (SK-MEL-28)	GI50 (COLO 205)	GI50 (A549)	GI50 (HL-60)	GI50 (SN12C)
O=C(Nc1ccc(F)cc1)C(=O)C(C1OC(=O)c2ccccc21)[N+](=O)[O-] (stereo not given)	> 100 µM (inactive)	> 100	> 100 µM (inactive)	> 100 µM (inactive)	> 100 µM (inactive)	> 100 µM (inactive)	> 100 µM (inactive)	> 100 µM (inactive)	> 100 µM (inactive)	> 100 µM (inactive)	> 100 µM (inactive)	> 100 µM (inactive)	> 100 µM (inactive)	> 100 µM (inactive)	> 100 µM (inactive)	> 100 µM (inactive)	> 100 µM (inactive)	–
CCCCNC(=S)Nn1c(-c2ccccc2)nc2ccccc2c1=O	> 100 µM (inactive)	> 100	> 100 µM (inactive)	> 100 µM (inactive)	> 100 µM (inactive)	68.5 µM (inactive)	> 100 µM (inactive)	> 100 µM (inactive)	74.1 µM (inactive)	> 100 µM (inactive)	> 100 µM (inactive)	> 100 µM (inactive)	92.5 µM (inactive)	9.68 µM (inactive)	> 100 µM (inactive)	> 100 µM (inactive)	25.7 µM (inactive)	> 100 µM (inactive)
CCOC(=O)C(CC/C=C\c1ccccc1)N1CCC[C@H]1C(=O)OC (stereo not given in full)	> 100 µM (inactive)	–	> 100 µM (inactive)	> 100 µM (inactive)	> 100 µM (inactive)	> 100 µM (inactive)	> 100 µM (inactive)	> 100 µM (inactive)	> 100 µM (inactive)	29.7 µM (inactive)	> 100 µM (inactive)	> 100 µM (inactive)	> 100 µM (inactive)	> 100 µM (inactive)	> 100 µM (inactive)	> 100 µM (inactive)	35.8 µM (inactive)	> 100 µM (inactive)
O=C(N/C(=C\c1ccc(/C=C(\NC(=O)c2ccccc2)c2nc3ccccc3s2)cc1)c1nc2ccccc2s1)c1ccccc1	12.7 µM (inactive)	4.6	6.3 µM (inactive)	8.45 µM (inactive)	5.18 µM (inactive)	3.73 µM (inactive)	2.59 µM (inactive)	17.1 µM (inactive)	4.21 µM (inactive)	3.64 µM (inactive)	17.2 µM (inactive)	8.2 µM (inactive)	4.72 µM (inactive)	11.1 µM (inactive)	5.12 µM (inactive)	13.5 µM (inactive)	1.71 µM (inactive)	3.99 µM (inactive)
Cc1c(C#N)c(=O)[nH]c(=O)n1CCN1CCN(C(=O)NCCCCCCNC(=O)N2CCN(CCn3c(C)c(C#N)c(=O)[nH]c3=O)CC2)CC1	> 100 µM (inactive)	> 100	–	–	> 100 µM (inactive)	> 100 µM (inactive)	> 100 µM (inactive)	> 100 µM (inactive)	> 100 µM (inactive)	> 100 µM (inactive)	–	> 100 µM (inactive)	> 100 µM (inactive)	> 100 µM (inactive)	> 100 µM (inactive)	> 100 µM (inactive)	> 100 µM (inactive)	> 100 µM (inactive)
COc1cccc2c1CCc1ccccc1CC2=O	> 100 µM (inactive)	> 100	> 100 µM (inactive)	> 100 µM (inactive)	> 100 µM (inactive)	> 100 µM (inactive)	> 100 µM (inactive)	> 100 µM (inactive)	> 100 µM (inactive)	> 100 µM (inactive)	> 100 µM (inactive)	> 100 µM (inactive)	> 100 µM (inactive)	> 100 µM (inactive)	> 100 µM (inactive)	> 100 µM (inactive)	> 100 µM (inactive)	> 100 µM (inactive)
Cc1cccc(-c2nnc3s/c(=C\c4ccc(N(C)C)cc4)c(=O)n23)c1	> 100 µM (inactive)	–	> 100 µM (inactive)	> 100 µM (inactive)	> 100 µM (inactive)	–	> 100 µM (inactive)	> 100 µM (inactive)	> 100 µM (inactive)	> 100 µM (inactive)	> 100 µM (inactive)	> 100 µM (inactive)	> 100 µM (inactive)	> 100 µM (inactive)	> 100 µM (inactive)	> 100 µM (inactive)	> 100 µM (inactive)	> 100 µM (inactive)
CN(C)c1nc(N(C)C)n2nc(-c3ccccc3[N+](=O)[O-])nc2n1	> 100 µM (inactive)	16.3	> 100 µM (inactive)	> 100 µM (inactive)	> 100 µM (inactive)	> 100 µM (inactive)	> 100 µM (inactive)	> 100 µM (inactive)	> 100 µM (inactive)	89.7 µM (inactive)	> 100 µM (inactive)	35.6 µM (inactive)	> 100 µM (inactive)	> 100 µM (inactive)	70.1 µM (inactive)	> 100 µM (inactive)	> 100 µM (inactive)	> 100 µM (inactive)
Cc1nc2c(nc1C)C(=O)c1cc(O)ccc1C2=O	> 100 µM (inactive)	36.9	74.3 µM (inactive)	> 100 µM (inactive)	> 54.6 µM (inactive)	35.2 µM (inactive)	> 100 µM (inactive)	> 69.8 µM (inactive)	53.1 µM (inactive)	> 51.1 µM (inactive)	> 100 µM (inactive)	77.6 µM (inactive)	8.13 µM (inactive)	98.4 µM (inactive)	23.1 µM (inactive)	77.6 µM (inactive)	31 µM (inactive)	> 73.5 µM (inactive)
